{"source": "paper PMC3694426", "about": "(Clinical cancer research : an official journal of the …, 2013)", "experiment": "phase I dose escalation: DLTs, MTD and treatment-emergent adverse events", "format": "in vivo, human", "settings": "for patients who experienced DLTs: modified DLT criteria", "note": "Entries after “also recorded” stand apart in the source; their conditions may differ."}
{"smiles": "CC1=C2C[C@H]3[C@@H](CC[C@@H]4C[C@H](NS(C)(=O)=O)CC[C@@]43C)[C@@H]2CC[C@@]2(C1)O[C@@H]1C[C@H](C)CN[C@H]1[C@H]2C", "note": "[IPI-926]", "values": [{"measurement": "Hemoglobin (lab), treatment-emergent adverse event", "setting": "160 mg (n = 18), Grade ≥3", "result": "1 (6) n (%)"}, {"measurement": "Muscle spasms, treatment-emergent adverse event", "setting": "160 mg (n = 18), Grade ≥3", "result": "0 (0) n (%)"}, {"measurement": "Nausea, treatment-emergent adverse event", "setting": "160 mg (n = 18), Grade ≥3", "result": "0 (0) n (%)"}, {"measurement": "Thrombocytopenia (lab), treatment-emergent adverse event", "setting": "160 mg (n = 18), Grade ≥3", "result": "0 (0) n (%)"}, {"measurement": "Vomiting, treatment-emergent adverse event", "setting": "160 mg (n = 18), Grade ≥3", "result": "0 (0) n (%)"}, {"measurement": "DLT description", "setting": "160 mg QD", "result": "Grade 3 AST and ALT elevation"}, {"measurement": "patients with DLT (grade 3 ALT and grade 3 AST elevation)", "setting": "160 mg QD", "result": "1 of 6"}, {"measurement": "DLTs per total patients treated", "setting": "160 mg QD (dose selected for phase II)", "result": "1/18"}, {"measurement": "patients with ≥grade 3 ALT elevations", "setting": "160 mg QD, the MTD", "result": 28, "unit": "%"}, {"measurement": "patients with ≥grade 3 AST elevations", "setting": "160 mg QD, the MTD", "result": 11, "unit": "%"}, {"measurement": "DLT description", "setting": "180 mg QD", "result": "Grade 3 fatigue and anorexia; also recorded: Grade 3 AST and ALT elevation"}, {"measurement": "DLTs per total patients treated", "setting": "180 mg QD (intolerable dose level)", "result": "2/5"}, {"measurement": "patients who experienced DLTs", "setting": "180 mg QD", "result": 2, "unit": "patients"}, {"measurement": "DLT description", "setting": "200 mg QD", "result": "Grade 3 AST elevation; also recorded: Grade 3 ALT elevation"}, {"measurement": "patients with adverse events that met DLT criteria", "setting": "200 mg QD", "result": 2, "unit": "patients"}, {"measurement": "DLTs per total patients treated", "setting": "200 mg QD (intolerable dose level)", "result": "2/3"}, {"measurement": "DLT description", "setting": "210 mg QD", "result": "Grade 3 AST and ALT elevation; also recorded: Grade 2 ALT elevation and hyperbilirubinemia"}, {"measurement": "DLTs per total patients treated", "setting": "210 mg QD (intolerable dose level)", "result": "2/7"}, {"measurement": "patients who experienced DLTs", "setting": "210 mg QD", "result": 2, "unit": "patients"}, {"measurement": "patients discontinued from the study due to toxicity", "setting": "6 of 94 patients", "result": 6, "unit": "%"}, {"measurement": "≥grade 2 toxicities", "setting": "20, 30, 40, 60 and 90 mg, 1-patient cohorts", "result": "no ≥grade 2 toxicities were documented"}, {"measurement": "deaths while on study", "setting": "94 patients", "result": "No patients died while on study"}, {"measurement": "ALT elevation (lab), treatment-emergent adverse event", "setting": "<130 mg (n = 5), Grade 1–2", "result": "1 (20) n (%)"}, {"measurement": "AST elevation (lab), treatment-emergent adverse event", "setting": "<130 mg (n = 5), Grade 1–2", "result": "1 (20) n (%)"}, {"measurement": "Alopecia, treatment-emergent adverse event", "setting": "<130 mg (n = 5), Grade 1–2", "result": "1 (20) n (%)"}, {"measurement": "Decreased appetite, treatment-emergent adverse event", "setting": "<130 mg (n = 5), Grade 1–2", "result": "0 (0) n (%)"}, {"measurement": "Diarrhea, treatment-emergent adverse event", "setting": "<130 mg (n = 5), Grade 1–2", "result": "0 (0) n (%)"}, {"measurement": "Dysgeusia, treatment-emergent adverse event", "setting": "<130 mg (n = 5), Grade 1–2", "result": "1 (20) n (%)"}, {"measurement": "Fatigue, treatment-emergent adverse event", "setting": "<130 mg (n = 5), Grade 1–2", "result": "2 (40) n (%)"}, {"measurement": "Hemoglobin (lab), treatment-emergent adverse event", "setting": "<130 mg (n = 5), Grade 1–2", "result": "3 (60) n (%)"}, {"measurement": "Muscle spasms, treatment-emergent adverse event", "setting": "<130 mg (n = 5), Grade 1–2", "result": "2 (40) n (%)"}, {"measurement": "Nausea, treatment-emergent adverse event", "setting": "<130 mg (n = 5), Grade 1–2", "result": "1 (20) n (%)"}, {"measurement": "Thrombocytopenia (lab), treatment-emergent adverse event", "setting": "<130 mg (n = 5), Grade 1–2", "result": "0 (0) n (%)"}, {"measurement": "Vomiting, treatment-emergent adverse event", "setting": "<130 mg (n = 5), Grade 1–2", "result": "0 (0) n (%)"}, {"measurement": "ALT elevation (lab), treatment-emergent adverse event", "setting": "<130 mg (n = 5), Grade ≥3", "result": "0 (0) n (%)"}, {"measurement": "AST elevation (lab), treatment-emergent adverse event", "setting": "<130 mg (n = 5), Grade ≥3", "result": "0 (0) n (%)"}, {"measurement": "Alopecia, treatment-emergent adverse event", "setting": "<130 mg (n = 5), Grade ≥3", "result": "0 (0) n (%)"}, {"measurement": "Decreased appetite, treatment-emergent adverse event", "setting": "<130 mg (n = 5), Grade ≥3", "result": "0 (0) n (%)"}, {"measurement": "Diarrhea, treatment-emergent adverse event", "setting": "<130 mg (n = 5), Grade ≥3", "result": "0 (0) n (%)"}, {"measurement": "Dysgeusia, treatment-emergent adverse event", "setting": "<130 mg (n = 5), Grade ≥3", "result": "0 (0) n (%)"}, {"measurement": "Fatigue, treatment-emergent adverse event", "setting": "<130 mg (n = 5), Grade ≥3", "result": "0 (0) n (%)"}, {"measurement": "Hemoglobin (lab), treatment-emergent adverse event", "setting": "<130 mg (n = 5), Grade ≥3", "result": "0 (0) n (%)"}, {"measurement": "Muscle spasms, treatment-emergent adverse event", "setting": "<130 mg (n = 5), Grade ≥3", "result": "0 (0) n (%)"}, {"measurement": "Nausea, treatment-emergent adverse event", "setting": "<130 mg (n = 5), Grade ≥3", "result": "0 (0) n (%)"}, {"measurement": "Thrombocytopenia (lab), treatment-emergent adverse event", "setting": "<130 mg (n = 5), Grade ≥3", "result": "0 (0) n (%)"}, {"measurement": "Vomiting, treatment-emergent adverse event", "setting": "<130 mg (n = 5), Grade ≥3", "result": "0 (0) n (%)"}, {"measurement": "ALT elevation (lab), treatment-emergent adverse event", "setting": ">160 mg (n = 15), Grade 1–2", "result": "11 (73) n (%)"}, {"measurement": "AST elevation (lab), treatment-emergent adverse event", "setting": ">160 mg (n = 15), Grade 1–2", "result": "12 (80) n (%)"}, {"measurement": "Alopecia, treatment-emergent adverse event", "setting": ">160 mg (n = 15), Grade 1–2", "result": "2 (13) n (%)"}, {"measurement": "Decreased appetite, treatment-emergent adverse event", "setting": ">160 mg (n = 15), Grade 1–2", "result": "4 (27) n (%)"}, {"measurement": "Diarrhea, treatment-emergent adverse event", "setting": ">160 mg (n = 15), Grade 1–2", "result": "2 (13) n (%)"}, {"measurement": "Dysgeusia, treatment-emergent adverse event", "setting": ">160 mg (n = 15), Grade 1–2", "result": "1 (7) n (%)"}, {"measurement": "Fatigue, treatment-emergent adverse event", "setting": ">160 mg (n = 15), Grade 1–2", "result": "6 (40) n (%)"}, {"measurement": "Hemoglobin (lab), treatment-emergent adverse event", "setting": ">160 mg (n = 15), Grade 1–2", "result": "12 (80) n (%)"}, {"measurement": "Muscle spasms, treatment-emergent adverse event", "setting": ">160 mg (n = 15), Grade 1–2", "result": "4 (27) n (%)"}, {"measurement": "Nausea, treatment-emergent adverse event", "setting": ">160 mg (n = 15), Grade 1–2", "result": "7 (47) n (%)"}, {"measurement": "Thrombocytopenia (lab), treatment-emergent adverse event", "setting": ">160 mg (n = 15), Grade 1–2", "result": "1 (7) n (%)"}, {"measurement": "Vomiting, treatment-emergent adverse event", "setting": ">160 mg (n = 15), Grade 1–2", "result": "5 (33) n (%)"}, {"measurement": "ALT elevation (lab), treatment-emergent adverse event", "setting": ">160 mg (n = 15), Grade ≥3", "result": "4 (27) n (%)"}, {"measurement": "AST elevation (lab), treatment-emergent adverse event", "setting": ">160 mg (n = 15), Grade ≥3", "result": "3 (20) n (%)"}, {"measurement": "Alopecia, treatment-emergent adverse event", "setting": ">160 mg (n = 15), Grade ≥3", "result": "0 (0) n (%)"}, {"measurement": "Decreased appetite, treatment-emergent adverse event", "setting": ">160 mg (n = 15), Grade ≥3", "result": "1 (7) n (%)"}, {"measurement": "Diarrhea, treatment-emergent adverse event", "setting": ">160 mg (n = 15), Grade ≥3", "result": "0 (0) n (%)"}, {"measurement": "Dysgeusia, treatment-emergent adverse event", "setting": ">160 mg (n = 15), Grade ≥3", "result": "0 (0) n (%)"}, {"measurement": "Fatigue, treatment-emergent adverse event", "setting": ">160 mg (n = 15), Grade ≥3", "result": "2 (13) n (%)"}, {"measurement": "Hemoglobin (lab), treatment-emergent adverse event", "setting": ">160 mg (n = 15), Grade ≥3", "result": "1 (7) n (%)"}, {"measurement": "Muscle spasms, treatment-emergent adverse event", "setting": ">160 mg (n = 15), Grade ≥3", "result": "0 (0) n (%)"}, {"measurement": "Nausea, treatment-emergent adverse event", "setting": ">160 mg (n = 15), Grade ≥3", "result": "0 (0) n (%)"}, {"measurement": "Thrombocytopenia (lab), treatment-emergent adverse event", "setting": ">160 mg (n = 15), Grade ≥3", "result": "0 (0) n (%)"}, {"measurement": "Vomiting, treatment-emergent adverse event", "setting": ">160 mg (n = 15), Grade ≥3", "result": "0 (0) n (%)"}, {"measurement": "recommended phase II / single-agent dose", "setting": "QD, 28-day cycles", "result": 160, "unit": "mg"}, {"measurement": "dose levels well tolerated", "setting": "administered QD", "result": "up to 160 mg"}, {"measurement": "hematologic toxicity", "setting": "all dose levels", "result": "not associated with hematologic toxicity; also recorded: No significant hematologic toxicities"}, {"measurement": "patients reporting alopecia", "setting": "at the MTD", "result": 22, "unit": "%"}, {"measurement": "patients reporting muscle spasms", "setting": "at the MTD", "result": 33, "unit": "%"}]}
